Assay results taken from PubChem BioAssay AID2252 (Southern Research Specialized Biocontainment Screening …, 2010).
pEC50: −log10 of the molar value. Values joined by “and” are separate entries in the source; they are usually repeats but may differ in a detail not shown here. Identical values can stand only once.

test system: THP-1 viability, CellTiter-Glo luminescence, 72 h; assay: PubChem AID 2252

SMILES | pEC50
O=C(CCN1CCN(c2ccccc2)CC1)c1ccc(Br)cc1 | 4.42
Cc1oc(/N=C/c2ccc(O)cc2O)c(C#N)c1C | > 7.00
Cc1c(C(=O)Nc2ccncc2)sc2nc(-c3ccc(F)cc3)cn12 | 4.71
CCOC(=O)c1c(-c2ccc(-c3ccccc3)cc2)csc1NC(=O)CNCCN(C)C | 5.13
CN1CCN(C2=Cc3cc(Cl)ccc3Sc3cc(F)ccc32)CC1 | 4.87
O=[N+]([O-])c1ccc(O)c2ncccc12 | 5.22
CC1CCN(CC(CS(=O)(=O)c2ccc([N+](=O)[O-])cc2)N2CCC(C)CC2)CC1 (centres undefined) | 4.84
CCCCCSc1cc(OC)c(CCNC)cc1OC | 4.86
NC[C@@H]1O[C@H](C23CC4CC(CC(C4)C2)C3)Cc2c1ccc(O)c2O | 5.44
CCc1nc(N)nc(N)c1-c1ccc(Cl)cc1 | 4.98
CCc1ccc2c(c1)C1(NN=C(c3ccc(C)cc3)S1)C(=O)N2 (centres undefined) | 5.03
O=C(CC(=O)c1c(F)cccc1Cl)c1ccccc1O | 4.56
Cc1cc(NC(=O)/C=C/C(=O)N(c2ccccc2C)C(C(=O)NC2CCCC2)c2ccc(F)cc2)no1 (centres undefined) | 4.43
Cc1c(CCOC(=O)C2C3CC4CC(C3)CC2C4)sc[n+]1CC(=O)c1ccc(Br)cc1 (centres undefined) | 5.20
COc1c(N2CCN(C(=S)NCc3ccccc3)C(C)C2)c(F)cc2c(=O)c(C(=O)O)cn(C3CC3)c12 (centres undefined) | 4.75
C#CCOCCOCCOCCNc1nc(N2CCN(C(=O)CCCCCCCCCCNC(=O)[C@H](CCCCN)n3cc(CCO)nn3)CC2)nc(N2CCN(C(=O)CCCCCCCCCCNC(=O)[C@H](CCCCN)n3cc(C[C@@H](C)CC)nn3)CC2)n1 | 4.89
O=S1(=O)Nc2c(ccc3cccnc23)-c2ccccc21 | 5.92
CCOc1ccc(-c2c[n+]3c(n2-c2ccccc2)CCCCC3)cc1 | 4.59
c1ccc2c(c1)CSc1sccc1C2=C1CCNCC1 | 4.75
C#CCOCCOCCOCCNc1nc(N2CCN(C(=O)CCCCCCCCCCNC(=O)[C@H](CCCCN)n3cc(C[C@@H](C)CC)nn3)CC2)nc(N2CCN(C(=O)CCCCCCCCCCNC(=O)[C@@H]([C@H](C)O)n3cc(C)nn3)CC2)n1 | 5.21
Oc1ccc(N=Nc2ccc(Br)cc2)c(O)c1 | 4.75
CC1CCC(C(C)C)C(OC(=O)Cn2c(-c3ccc(Cl)cc3)[n+](C)c3ccccc32)C1 (centres undefined) | 5.65
CCN(CC)C(=S)SSC(=S)N(CC)CC | 4.66
C/C(=N\Nc1ccc2nncn2n1)c1ccccn1 | 5.21
COc1ccc(CNCCc2cccc(F)c2)c2ccccc12 | 4.89
CC(NCC(O)COc1ccc2ccccc2c1)c1ccccc1 (centres undefined) | 5.17
CC(C)(c1ccccc1)c1ccc(OCCCNCCO)cc1 | 4.78

SMILES | pEC50
Cc1ccccc1C(=O)N/N=C/c1ccc([N+](=O)[O-])s1 | 4.78
COc1ccccc1Nc1nc(Cl)c(C=O)s1 | 4.67
Cn1c(CCN2CCN(c3ccccn3)CC2)nc2cc(NC(=O)COc3ccccc3)ccc21 | 4.65
COc1ccc(C(=O)CSc2nnc(-c3cnccn3)n2Cc2ccco2)cc1 | > 7.00
C#CCOCCOCCOCCNc1nc(N2CCN(C(=O)CCCCCCCCCCNC(=O)Cn3cc(CCCCCN)nn3)CC2)nc(N2CCN(C(=O)CCCCCCCCCCNC(=O)[C@H]([C@@H](C)CC)n3cc(CCCCN=C(N)N)nn3)CC2)n1 | 4.96
N=c1n(CCN2CCCCC2)c2ccccc2n1CC(O)COc1ccccc1 (centres undefined) | 4.54
CN(C)CC/C=C1/c2cc(F)ccc2Sc2ccc(Cl)cc21 | 4.69
CN(Cc1ccccc1)CC(O)COc1ccc(CNCc2ccc(Cl)s2)cc1 (centres undefined) | 4.65
COc1ccc(Nc2c3ccccc3nc3ccccc23)cc1 | 5.05
CN(C)CC/C=C1/c2ccccc2Sc2ccc(Cl)cc21 | 5.00
O=C(N/N=C/c1cc(Cl)cc(Cl)c1O)c1ccncc1 | 5.27
Cc1cccc(Nc2c3c(nc4ccccc24)CCC3)c1 | 5.20
CCN1CCN(C2=C(NS(=O)(=O)c3ccc(Br)cc3)C(=O)c3ccccc3C2=O)CC1 | 4.74
CSc1nnc(-c2cccc(NC(=S)NN)c2)o1 | > 7.00
O=C(Cn1nc(CNc2ccc(Cl)cc2)[n+]2c1CCCCC2)c1ccc(Br)cc1 | 4.95
O=C(Nc1nc(-c2ccccn2)cs1)c1ccc(Br)s1 | 5.92
CCc1ccc(NC(=O)C[n+]2cc(-c3ccc(C)cc3)n3c2CCC3)cc1 | 5.24
O=C(CN1C2=NCCCN2c2ccccc21)c1ccc([N+](=O)[O-])cc1 | 4.49
Cc1ccccc1C(=O)NNC(=S)NC(=O)COc1ccccc1 | 4.32
CN1CCN(C2=Cc3ccccc3Sc3cc(F)c(Cl)cc32)CC1 | 4.74
Cc1cccc(C(=O)NNC(=S)NC(=O)c2cccs2)c1 | 4.83
Cc1cc(C)c(OCCCCNCc2ccccc2)c(Cl)c1 | 4.91
O=C1c2ccccc2C2=Nc3ccccc3SC(c3ccccc3F)C12 (centres undefined) | 4.86
COc1cccc(Nc2cc(C)nc3ccccc23)c1 | 4.52
O=C(Nc1cccc(C2=NCCN2)c1)Nc1cccc(C2=NCCN2)c1 | 4.88
O=C(NC(=C(Cl)Cl)S(=O)(=O)c1ccc(Cl)cc1)c1ccccc1 | 4.63
C/C(Cn1nnc([N+](=O)[O-])n1)=N\NC(=O)c1ccccc1 | 4.40

SMILES | pEC50
[O-][n+]1cccc2c(Br)cc(Br)c(O)c21 | 4.61
Cc1cc(N2CCC(C)CC2)nc(NCc2ccccc2)n1 | 5.21
CN1CCN(c2nc(Nc3ccc(F)cc3)nc(Nc3ccc(F)cc3)n2)CC1 | 4.92
COc1cc(/C=C/[N+](=O)[O-])ccc1O | 4.92
O=C(N/N=C/c1ccc(O)c(O)c1)C1c2ccccc2Oc2ccccc21 | 4.38
O=c1c2ccccc2nc(-c2cccc(Cl)c2)n1O | 4.74
CCOc1cccc(/C=N/NC(=O)c2cc(C3CC3)[nH]n2)c1O | 5.26
CCN(CC)c1ccc(/C=N/NC(=O)c2ccc3nc[nH]c3c2)c(O)c1 | 6.05
O=c1c(O)cccc2cc(O)c(O)c(O)c12 | 4.62
O=C(N/N=C/c1cc(Br)ccc1O)c1ccncc1 | 5.30
O=C(CCc1ccccc1)NNC(=S)NC(=O)c1ccccc1 | 4.96
CCOC(=O)c1c(-c2ccccc2)oc2ccc(OCC(O)CNCCN(C)C)cc12 (centres undefined) | 5.23
O=C(NCCCN1CCN(c2ccc(F)cc2)CC1)Nc1ccc([N+](=O)[O-])cc1 | 4.35
O=[N+]([O-])c1cc(Cl)c2cccnc2c1O | 4.54
O=C(CCl)NC1CCCc2ccccc21 (centres undefined) | 4.59
Fc1ccc(/C=N/Nc2nc3ccccc3[nH]2)cc1F | 4.37
O=C(O)c1ccc(NC2=C(Cl)C(=O)c3ccccc3C2=O)cc1 | 4.94
CCN1CCCC1CNC(=O)C1CCN(Cc2nc(-c3cccc(Br)c3)oc2C)CC1 (centres undefined) | 4.91
CCCCCNc1nc(N2CCCC2)c2c(c1C#N)CCN(C)C2 | 4.63
CC(C)(C)c1nc(SCC(=O)NCc2ccco2)c2ccccc2n1 | 4.52
CCOC(=O)C1=C(O)c2ccccc2C(=O)/C1=C\c1ccc(C)cc1 | 4.63
CCCCCCCSc1cc(OC)c(CCNC)cc1OC | 4.99
CCCCCCCCCCOC(=O)Cn1c(COc2ccc(OC)cc2)[n+](C)c2ccccc21 | 5.39 and 5.66
Cc1cc(C(C)(C)CC(C)(C)C)ccc1OCCOCC[N+](C)(C)Cc1ccccc1 | 5.93
Cc1cc([N+](=O)[O-])cc(/C=N\NC(=O)C2COc3ccccc3O2)c1O (centres undefined) | 4.84
